# Laboratory results taken from patent publication EP0370481A2, “Pharmaceutical preparations for the enhanced resorption of antibacterial compounds” (priority 1988, dated 1990).
# How the values were obtained:
# [1] = Rectal absorption in vivo (monkeys): suppositories, plasma level
# Source text: Für diesen Versuch wurden männliche und weibliche erwachsene Affen (Papio anubis und Papio hamadryas) im Gewicht vom 12-27 kg verwendet, die 24 Stunden vor der Verabreichung des Antibiotikums fasten gelassen wurden, dann durch i.m.-Injektionen von Kefamin Hydrochlorid vor der Verabreichung des Antibiotikums sediert wurden. Aus den nachstehend beschriebenen Formulierungen wurden Suppositorien hergestellt die den Tieren verabreicht wurden. Die Rektalöffnungen wurden dann mit Klebeband verschlossen, um ein Herausdrücken der Suppositorienmasse zu vermeiden.
# Zur Messung der Resorption des Antibiotikums in den Blutstrom wurden Blutproben aus der Femoralregion vor der Verabreichung des Antibiotikums und 15, 30, 60, 120, 240, 360 und 480 Minuten danach entnommen. Proben wurden zentrifugiert und wie oben beschrieben vermessen.
# [2] = Enteral absorption in vivo (rats): intraduodenal injection, antibiotic plasma level by agar-plate bioassay; details: Dosis = 5 mg/0,5 ml
# Source text: Weibliche Ratten im Gewicht von etwa 250 g wurden über Nacht fasten gelassen und mit Metofan anästhesiert. Die Antibiotika wurden in Lösung mit oder ohne Resorptionsver, stärker nach Bauchschnitt in das Duodenum unterhalb des Magenausgangs injiziert. Für Vergleichszwecke wurde die Lösung alternativ intravenös in die Schwanzvene appliziert.
# Die Konzentration des Antibiotikums im Plasma der Ratte wurde nach verschiedenen Zeitintervallen nach intravenöser oder enteraler Verabreichung bestimmt. Blutproben wurden aus der Schwanzvene des Versuchstiers vor der Verabreichung des Antibiotikums und 5, 10, 20, 40, 60, 120, 240 und 360 Minuten danach entnommen, danach zentrifugiert und das Plasma bis zur Analyse eingefroren.
# Antibiotika, die nicht an Plasma gebunden waren, wurden mit Wasser verdünnt und gegen in Wasser hergestellte Standards geprüft. Für gebundene Antibiotika wurde der Einfluss der Proteinbindung eliminiert durch Verdünnen aller Standardlösungen und Proben im gesammelten Plasma. Im Fall von Ceftriaxon in Cefazolin wurde der Effekt der Bindung dadurch berücksichtigt, dass Plasmaproben mit Acetonitril mit einem Verdünnungsfaktor 1:12 deproteinisiert und gegen eine Standardkurve in Wasser verdünnt gemessen wurden. Antibiotikaspiegel wurden wie unten angegeben auf Agarplatten ermittelt.
# Die Platten wurden bei 37°C über Nacht bebrütet und die Hemmzonen auf die nächsten […] abgelesen. Die Berechnungen wurden mittels einer Autoassaymaschine (Giles Scientific, Inc., New York) vorgenommen. Vergleiche J.V. Bennett et al., Applied Microbiology 14, 170-177 (1966).
# [3] = Enteral absorption in vivo (dogs): capsules through a modified Thomas cannula into the proximal jejunum, plasma level and bioavailability; details: for Cmax: beagle, dog, plasma
# Method: Als Versuchstiere wurden sechs Beagle-Hunde im Gewicht von etwa 10-16 kg eingesetzt, denen eine modifizierte Thomaskanüle in das distale Duodenum eingesetzt worden war. […] Die Kapseln wurden durch die modifizierte Thomaskanüle in das proximale Jejunum appliziert. Die Dosierung war 20-50 mg Ceftriaxon pro kg Körpergewicht.
# Die Plasmakonzentrationen von Ceftriaxon wurden vor der Verabreichung und 10, 20, 40, 60, 120, 180 und 240 Minuten nach der Verabreichung ermittelt. Zur Erstellung einer Standardkurve wurde Ceftriaxon mit normalem Hundeplasma verdünnt und deproteinisiert. Die Fläche unter der Kurve (AUC) wurde für jede Verabreichungsweise bestimmt. Aus diesen Bestimmungen wurde die Bioverfügbarkeit wie folgt berechnet. [formula]
# Wenn keine i.v.-Daten für den gleichen enteral verwendeten Dosisspiegel verfügbar waren, wurde die folgende Gleichung angewandt: [formula]
# [4] = Oral absorption in vivo (monkeys): enteric-coated hard gelatin capsules by gavage, plasma bioassay; details: for Cmax: monkey, plasma
# Method: Erwachsene Affen (Papio anubis und Papio hamadryas) im Gewicht von 12-30 kg wurden über Nacht fasten gelassen, dann durch i.m.-Injektion von Ketaminhydrochlorid vor der Verabreichung des Antibiotikums sediert. Jeder Affe erhielt vier Hartgelatinekapseln durch Schlundsonde mit der folgenden Zusammensetzung:
# Die Kapseln wurden mit einem Ueberzug von Polyvinylacetatphthalat (etwa 8% des Kapselgewichtes versehen).
# 1 ml Pro Blutproben wurden aus der Femoralregion jedes Affen mit einer heparinisierten 3-ml Spritze entnommen. Die Proben wurden vor der Verabreichung des Antibiotikums und 15, 30, 60, 120, 240, 360, 480, 600 und 720 Minuten danach entnommen. Die Blutproben wurden zentrifugiert und das Plasma nach Deproteinisierung mit Acetonitril einem Bioassay unterworfen.
# [5] = Oral absorption in vivo (dogs): enteric-coated hard gelatin capsules by gavage, plasma level; details: for Cmax: male, beagle, dog, plasma
# Source text: Für diesen Versuch wurden männliche Beagle-Hunde im Gewicht von 10-14 kg verwendet, die 2-3 Hartgelatinekapseln durch die Schlundsonde erhielten. Die Kapseln hatten folgende Zusammensetzung:
# Die Kapseln waren mit einem Ueberzug von Polyvinylacetatphthalat (etwa 8% des Kapselgewichtes versehen).
# Die Plasmakonzentrationen wurden von Ceftriaxon vor der Verabreichung und 10, 20, 40, 60, 120, 180 und 240 Minuten nach der Verabreichung ermittelt. Die Messungen wurden in Blutplasma nach Deproteinisierung weiter oben beschrieben ermittelt.
# [6] = both sexes, monkey, plasma, 500 mg, rectal suppository, Mit Resorptionsverstärker System: 500 mg Antibiotikum, 125 mg Laureth-12, 250 mg Labrasol, 1125 mg Witepsol H15, read-out: Cmax Bereich
# [7] = both sexes, monkey, plasma, rectal suppository, Kontrolle ohne Resorptionsverstärker, read-out: Cmax Bereich
# [8] = rectal suppository, Kontrolle ohne Resorptionsverstärker
# [9] = rectal suppository, Mit Resorptionsverstärker System: 500 mg Antibiotikum, 125 mg Laureth-12, 250 mg Labrasol, 1125 mg Witepsol H15
# [10] = enteral (proximal jejunum), 2 capsules with 210 ml Ceftriaxonnatrium in 280 mg WITEPSOL H15 + 157,5 mg Labrasol + 52,5 mg Laureth-12, 20-50 mg/kg
# [11] = Kontrollwert: Ceftriaxonnatrium 300 mg in the same capsule without absorption enhancer
# [12] = 2-3 enteric-coated capsules each 300 mg Ceftriaxonnatrium, 225 mg Labrasol, 75 mg Laureth-12, 380 mg Witepsol H15
compound,measurement,setting,value
"Cn1nnnc1SCC1=C(C(=O)O)N2C(=O)[C@@H](NC(=O)[C@H](O)c3ccccc3)[C@H]2SC1 [Cefamandole, Cefamandol]",Cmax,[1]; [6],5.9 to 16.4 µg/mL
same,Cmax,[1]; [7],2.3 to 4.6 µg/mL
same,% Bioverfügbarkeit,[1]; [8],6.0 ± 2.3%
same,% Bioverfügbarkeit,[1]; [9],46.5 ± 16.6%
CO[C@@]1(NC(=O)Cc2cccs2)C(=O)N2C(C(=O)O)=C(COC(N)=O)CS[C@@H]21 [Cefoxitin],Cmax,[1]; [6],4.7 to 10.8 µg/mL
same,% Bioverfügbarkeit,[1]; [8],0%
same,% Bioverfügbarkeit,[1]; [9],77.0 ± 22.5%
CO/N=C(\C(=O)N[C@@H]1C(=O)N2C(C(=O)O)=C(CSc3nc(=O)c(=O)[nH]n3C)CS[C@H]12)c1csc(N)n1 [Ceftriaxon],Cmax,"[2]; female, rat, plasma, 5 mg/0,5 ml, Cmax, Acconon Con + Laureth-12 (weight ratio 8:1)",38.8 ± 22.6 µg/mL
same,Cmax,"[2]; female, rat, plasma, 5 mg/0,5 ml, Cmax, Kontrolle Wasser, no absorption enhancer",2.4 ± 1.9 µg/mL
same,Cmax,"[2]; female, rat, plasma, 5 mg/0,5 ml, Cmax, Labrasol + Laureth-12 (weight ratio 8:1)",106 ± 23 µg/mL
same,Cmax,"[2]; female, rat, plasma, 5 mg/0,5 ml, Cmax, Natriumcaprylat (30%) + Laureth-12 (weight ratio 8:1)",53.7 ± 13.3 µg/mL
same,Cmax,[3]; [10],19.5 µg/mL
same,Cmax,"[3]; other: enteral, enteral, Kontrolle: solution of Ceftriaxon in water equivalent to 25 mg/kg, no absorption enhancer",0.5 µg/mL
same,Bioverfügbarkeit,[3]; [10],"45,4 ± 18,2%"
same,Bioverfügbarkeit,"[3]; enteral, Kontrolle: solution of Ceftriaxon in water equivalent to 25 mg/kg, no absorption enhancer",0%
same,Bioverfügbarkeit,"[4]; 4 enteric-coated capsules each 300 mg Ceftriaxonnatrium, 225 mg Labrasol, 75 mg Laureth-12, 380 mg Witepsol H15","10,8 ± 6,5%"
same,Bioverfügbarkeit,[4]; [11],0%
same,Bioverfügbarkeit,"[4]; formulation 300 mg Ceftriaxonnatrium, 75 mg Laureth-12, 415 mg Witepsol H15","15,7 + 9,9%"
same,Cmax,"[4]; 300 mg per capsule, formulation 300 mg Ceftriaxonnatrium, 200 ml Natriumcaprylat, 75 mg Laureth-12, 415 mg Witepsol H15, read-out: Cmax-Bereich",15 to 66.3 µg/mL
same,Cmax,"[4]; 1200 mg, 4 enteric-coated capsules each 300 mg Ceftriaxonnatrium, 225 mg Labrasol, 75 mg Laureth-12, 380 mg Witepsol H15, read-out: Cmax-Bereich",5.5 to 59.8 µg/mL
same,Bioverfügbarkeit,[5]; [12],"34,2 ± 14,0%"
same,Bioverfügbarkeit,[5]; [11],0%
same,Bioverfügbarkeit,"[5]; formulation 300 mg Ceftriaxonnatrium, 200 mg Natriumcaprylat, 75 mg Laureth-12, 415 mg Witepsol H15","22,4 + 13,5%"
same,Cmax,"[5]; 300 mg per capsule, formulation 300 mg Ceftriaxonnatrium, 200 mg Natriumcaprylat, 75 mg Laureth-12, 415 mg Witepsol H15",14.4 µg/mL
same,Cmax,[5]; [12],21.6 µg/mL
same,Cmax,[1]; [6],18.2 to 49.6 µg/mL
same,Cmax,"[1]; both sexes, monkey, plasma, 600 mg, rectal, Kontrollwert: 600 mg Ceftriaxonnatrium in suppository mass without absorption enhancer, read-out: Cmax-Bereich",0.3 to 9 µg/mL
same,Cmax,"[1]; both sexes, monkey, plasma, 600 mg, rectal, formulation 600 mg Ceftriaxonnatrium, 200 mg Natriumcaprylat, 125 mg Laureth-12, 1075 mg Witepsol H15, read-out: Cmax-Bereich",68.1 to 1000 µg/mL
same,Cmax,[1]; [7],0.3 to 9 µg/mL
same,% Bioverfügbarkeit,[1]; [8],4.3 ± 2.8%
same,% Bioverfügbarkeit,[1]; [9],31.5 ± 13.1%
same,Bioverfügbarkeit,"[1]; rectal, Kontrollwert: 600 mg Ceftriaxonnatrium in suppository mass without absorption enhancer","4,3%"
same,Bioverfügbarkeit,"[1]; rectal, formulation 600 mg Ceftriaxonnatrium, 200 mg Natriumcaprylat, 125 mg Laureth-12, 1075 mg Witepsol H15","49,3 ± 13.7%"
CC1(C)S[C@@H]2[C@H](NC(=O)Cc3ccccc3)C(=O)N2[C@H]1C(=O)O [Penicillin G],Cmax,"[2]; rat, in vivo, 5 mg, Cmax, Acconon Con + Laureth-12 (weight ratio 8:1)",3.5 ± 1 µg/mL
same,Cmax,"[2]; rat, in vivo, 5 mg, Cmax, Kontrolle Wasser, no absorption enhancer",0.5 ± 0.1 µg/mL
same,Cmax,"[2]; rat, in vivo, 5 mg, Cmax, Labrasol + Laureth-12 (weight ratio 8:1)",5.2 ± 1.6 µg/mL
same,Cmax,"[2]; rat, in vivo, 5 mg, Cmax, Natriumcaprylat (30%) + Laureth-12 (weight ratio 8:1)",7.4 ± 2.4 µg/mL
same,Cmax,"[1]; baboon, in vivo, rectal suppository, Kontrolle ohne Resorptionsverstärker, read-out: Cmax Bereich",1.2 to 2.4 µg/mL
same,Cmax,"[1]; baboon, in vivo, rectal suppository, Mit Resorptionsverstärker System: 500 mg Antibiotikum, 125 mg Laureth-12, 250 mg Labrasol, 1125 mg Witepsol H15, read-out: Cmax Bereich",2 to 11.1 µg/mL
same,% Bioverfügbarkeit,[1]; [8],17.4 ± 8.0%
same,% Bioverfügbarkeit,[1]; [9],38.2 ± 26.1%
CN[C@H](CC(C)C)C(=O)N[C@H]1C(=O)N[C@@H](CC(N)=O)C(=O)N[C@H]2C(=O)N[C@H]3C(=O)N[C@H](C(=O)N[C@H](C(=O)O)c4cc(O)cc(O)c4-c4cc3ccc4O)[C@H](O)c3ccc(c(Cl)c3)Oc3cc2cc(c3O[C@@H]2O[C@H](CO)[C@@H](O)[C@H](O)[C@H]2O[C@H]2C[C@](C)(N)[C@H](O)[C@H](C)O2)Oc2ccc(cc2Cl)[C@H]1O [Vancomycin],Cmax,"[2]; female, rat, in vivo, 5 mg/0,5 ml, Cmax, Kontrolle Wasser, no absorption enhancer",2.9 ± 0.6 µg/mL
same,Cmax,"[2]; female, rat, in vivo, 5 mg/0,5 ml, Cmax, Labrasol + Laureth-12 (weight ratio 8:1)",6.9 ± 1 µg/mL
same,Cmax,"[2]; female, rat, in vivo, 5 mg/0,5 ml, Cmax, Natriumcaprylat (30%) + Laureth-12 (weight ratio 8:1)",9.8 ± 3.5 µg/mL
Gentamicin,Cmax,[2]; Acconon Con + Laureth-12 (weight ratio 8:1),15.4 ± 2.3 µg/mL
same,Cmax,"[2]; Kontrolle Wasser, no absorption enhancer",3.9 µg/mL
same,Cmax,[2]; Labrasol + Laureth-12 (weight ratio 8:1),9.6 ± 1.9 µg/mL
same,Cmax,[2]; Natriumcaprylat (30%) + Laureth-12 (weight ratio 8:1),14.1 ± 6.9 µg/mL
